Values joined by “and” are separate entries in the source; they are usually repeats but may differ in a detail not shown here. Equal values may be shown once.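 Cells were grown in 96-well plates and exposed to each compound for 48 hours at five concentrations; endpoints were interpolated linearly between bracketing concentrations, or set to the highest concentration if not reached. GI50 is the concentration that inhibits growth by half. TGI marks complete inhibition of growth.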
Key:
Test in all cases: NCI tumour cell line growth inhibition, 48 h
[1] = test system: HCT-116 colon
[2] = test system: IGROV1 ovarian
[3] = test system: NCI/ADR-RES ovarian
[4] = test system: SN12C renal
[5] = test system: KM12 colon
[6] = test system: HS 578T breast
[7] = test system: HCC-2998 colon
[8] = test system: M14 melanoma
[9] = test system: NCI-H23 lung
[10] = test system: MDA-MB-231 breast

| Structure (SMILES) | TGI [1] | TGI [2] | TGI [3] | TGI [4] | TGI [5] | TGI [6] | TGI [7] | TGI [8] | TGI [9] | TGI [10] | GI50 [1] | GI50 [2] | GI50 [3] | GI50 [4] | GI50 [5] | GI50 [6] | GI50 [7] | GI50 [8] | GI50 [9] | GI50 [10] |
| --- | --- | --- | --- | --- | --- | --- | --- | --- | --- | --- | --- | --- | --- | --- | --- | --- | --- | --- | --- | --- |
| COC(=O)Oc1nn(C(=O)OC)c(=O)c2ccccc12 | > 100 µM | > 100 µM | > 100 µM | > 100 µM | > 100 µM | > 100 µM | > 100 µM | > 100 µM | > 100 µM | > 100 µM |  |  |  |  |  |  |  |  |  |  |
| COc1ccc(-c2coc3cc(O)ccc3c2=O)cc1 | > 100 µM | > 100 µM | > 100 µM | > 100 µM | > 100 µM | > 100 µM | > 100 µM | > 100 µM | > 100 µM | > 100 µM |  |  |  |  |  |  |  |  |  |  |
| COC(=O)C12CCC(C)(C)CC1C1=CCC3C4(C)CC(O)C(O)C(C)(C(=O)OC)C4CCC3(C)C1(CO)CC2 (stereo not given) | 27.4 µM | 35.2 µM | 29.2 µM | 33.2 µM | 22.3 µM | 28.2 µM | 27.2 µM | 19.5 µM | 32.2 µM | 33.5 µM |  |  |  |  |  |  |  |  |  |  |
| CNS(=O)(=O)OCC1OC(n2cnc3cncnc32)C(O)C1O (stereo not given) | > 100 µM | > 100 µM | > 100 µM | > 100 µM | > 100 µM | > 100 µM | > 100 µM | > 100 µM | > 100 µM | > 100 µM | > 100 µM | > 100 µM | > 100 µM | > 100 µM | > 100 µM | > 100 µM | > 100 µM | > 100 µM | > 100 µM | > 100 µM |
| CC(=O)OCC12CN(C#N)C3C4COC(CC41)C1(C(=O)N(C)c4ccccc41)C32 (stereo not given) | 40.7 µM | 85 µM | 95.8 µM | 73.1 µM | > 100 µM | 55.9 µM | 86.6 µM | 61.9 µM | 44.6 µM | 64.9 µM |  |  |  |  |  |  |  |  |  |  |
| Cc1ccc(-c2nc3nc(-c4ccc(F)cc4)nc(N4CCNCC4)c3o2)cc1 | 3.32 µM | 3.16 µM | 4.47 µM | 19.8 µM | 3.61 µM | 5.12 µM | 15.8 µM | 3.79 µM | 27.6 µM | 3.63 µM | 1.7 µM | 1.68 µM | 2.11 µM | 5.54 µM | 1.88 µM | 2.06 µM | 4.11 µM | 1.92 µM | 12 µM | 1.86 µM |
| C[C@H](c1ccc(F)cc1CCCC(=O)O)N(c1cc(F)ccc1F)S(=O)(=O)c1ccc(Cl)cc1 | 47.1 µM | > 92.4 µM | > 100 µM | > 100 µM | > 100 µM | > 85 µM | 59.4 µM | > 80.2 µM | 59 µM | > 100 µM | 19.4 µM | 31.7 µM | 30.6 µM | 32.2 µM | 26.5 µM | 20 µM | 20.9 µM | 22.6 µM | 19.6 µM | 31.4 µM |
| OCc1ccc(-c2csc(-c3ccc(CO)o3)c2)o1 | > 100 µM | > 100 µM | > 100 µM | > 100 µM | > 100 µM | > 100 µM | > 100 µM | > 100 µM | > 100 µM | > 100 µM | 5.71 µM | 0.926 µM | 26.9 µM | 88.7 µM | 39.1 µM | 70.6 µM | 40.4 µM | 30.6 µM | 34.9 µM | 67.2 µM |
| Cn1cc(C2=C(c3c4n(c5ccccc35)CCNC4)C(=O)NC2=O)c2ccccc21 | > 25 µM | > 21.5 µM | > 25 µM | > 25 µM | > 25 µM | > 20.5 µM | > 17.4 µM | > 25 µM | > 25 µM | > 25 µM | 9.68 µM | > 10 µM | 12.7 µM | 11.9 µM | 8.63 µM | 4.14 µM | 7.41 µM | 12.4 µM | 24.5 µM | 9.87 µM |
| Fc1cc(F)c(F)c(S)c1F | > 100 µM | > 100 µM | 38.6 µM | 43.8 µM | > 100 µM | > 100 µM | > 100 µM | > 100 µM | > 100 µM | 44.8 µM |  |  |  |  |  |  |  |  |  |  |
| O=C(Cn1c(C(=O)c2ccc(Cl)cc2)nc(-c2ccc(Cl)cc2)c1-c1ccc(Cl)cc1)c1ccccc1 | > 100 µM | > 100 µM | > 100 µM | > 100 µM | > 100 µM | > 100 µM | > 100 µM | > 100 µM | > 100 µM | > 100 µM | > 100 µM | > 100 µM | > 100 µM | > 100 µM | > 100 µM | > 100 µM | > 100 µM | > 100 µM | > 100 µM | > 100 µM |
| CC1(C)CC(=O)C=C(/C=C/Sc2c(Cl)c(Cl)nc(Cl)c2Cl)C1 | 13.3 µM | 84.9 µM | 25.6 µM | 16.3 µM | 26.2 µM | 74.3 µM | 21.3 µM | 24.2 µM | 19.3 µM | 20.4 µM | 3.85 µM | 4.75 µM | 11.3 µM | 4.56 µM | 11.6 µM | 25.8 µM | 9.46 µM | 11.7 µM | 6.34 µM | 7.22 µM |
| COc1ccc(/C=C/C(=O)c2c(O)ccc3c(C)c(C(=O)O)oc23)cc1 | > 100 µM | > 100 µM | > 100 µM | > 100 µM | > 100 µM | > 100 µM | > 100 µM | > 100 µM | > 100 µM | > 100 µM | 49.2 µM | > 100 µM | 61.9 µM | 27.5 µM | > 100 µM | 39.7 µM | 36.7 µM | > 100 µM | 74.2 µM | 44.7 µM |
| O=C(O)CCCCn1ccc(=O)[nH]c1=O | > 100 µM | > 100 µM | > 100 µM | > 100 µM | > 100 µM | > 100 µM | > 100 µM | > 100 µM | > 100 µM | > 100 µM |  |  |  |  |  |  |  |  |  |  |
| N#Cc1c(NCc2ccccc2)nc(NCc2ccccc2)c(C#N)c1-c1ccc(Cl)cc1 | > 100 µM | > 100 µM | > 100 µM | > 100 µM | > 100 µM | > 50 µM and 86.6 µM | > 100 µM | > 100 µM | > 100 µM | > 100 µM | > 50 µM and 24.6 µM | > 50 µM and 37.1 µM | > 50 µM and 96.6 µM | > 50 µM and 36.2 µM | > 50 µM and 85.8 µM | > 50 µM and 37.8 µM | > 100 µM | > 50 µM and 53.5 µM | > 50 µM and 67.1 µM | > 50 µM and 31.9 µM |
| C/C(CCC(=O)O)=N/Nc1ccc([N+](=O)[O-])cc1 | > 100 µM | > 100 µM | > 100 µM | > 100 µM | > 100 µM | > 100 µM | > 100 µM | > 100 µM | > 100 µM | > 100 µM | 4.31 µM | > 100 µM | 4.44 µM | > 100 µM | 0.839 µM | > 100 µM | 5.94 µM | 1.53 µM | > 100 µM | 7.16 µM |
| COC(=O)C1=COC2OC3C(C(C)O)C(=O)OC34C=CC1C24 (stereo not given) | > 100 µM | > 100 µM | 69 µM | > 100 µM | > 100 µM | > 100 µM | > 100 µM | > 100 µM | > 100 µM | > 100 µM |  |  |  |  |  |  |  |  |  |  |
| COc1ccc(-c2cc(/C=C3\C(=O)Nc4cc(Cl)ccc43)[nH]n2)cc1 | > 100 µM | > 100 µM | 17.5 µM | > 100 µM | 56.1 µM | 35 µM | 68.7 µM | > 100 µM | > 100 µM | > 100 µM | 3.63 µM | 4.76 µM | 2.79 µM | 6.69 µM | 3.46 µM | 2.9 µM | 8.72 µM | 2.7 µM | 4.27 µM | 4.09 µM |
| CCN1CCC(CC(=O)Nc2n[nH]c3nnc(-c4cccc(F)c4F)cc23)CC1 | > 25 µM | > 25 µM | > 25 µM | > 25 µM | > 25 µM | > 25 µM | > 25 µM | > 25 µM | > 25 µM | > 25 µM | 24.9 µM | > 25 µM | > 25 µM | > 25 µM | > 25 µM | > 19.9 µM | > 25 µM | > 25 µM | > 25 µM | > 25 µM |
| COC1=CC(c2ccc[nH]2)=N/C1=C\c1[nH]c(C)c(C(=O)CCC(=O)Oc2ccc3c(c2)CCC2C3CC[C@]3(C)[C@@H](O)CC[C@@H]23)c1C (stereo not given in full) | 3.57 µM | > 100 µM | > 100 µM | > 100 µM | > 100 µM | > 100 µM | > 100 µM | 4.6 µM | > 100 µM | 2.55 µM | 1.03 µM | 4.47 µM | 4.58 µM | 5.06 µM | 3 µM | 3.17 µM | 4.05 µM | 2.1 µM | 3.56 µM | 0.46 µM |
| CCCCCCC1N=C(N)N=C(N)N1c1cccc(Cl)c1 (stereo not given) | 14.3 µM | 5.88 µM | > 100 µM | 13.1 µM | 7.26 µM | 9.22 µM | 11.2 µM | 15.5 µM | 15 µM | 22.5 µM | 0.0747 µM | 0.199 µM | 75.8 µM | 0.559 µM | 0.421 µM | 0.871 µM | 0.668 µM | 0.668 µM | 0.496 µM | 1.93 µM |
